Results on two molecules are retold here after publication PMC11589483, “Preparation and anti-colon cancer effect of a novel curcumin analogue (CA8): in vivo and in vitro evaluation” (Frontiers in Pharmacology, 2024).

Read-outs that look alike come from different tables or passages of the source. Some results are limits rather than exact numbers.

Details of data set [1]: method as in Al-Hujaily et al., 2011. Particulars: ref Al-Hujaily et al., 2011; cited from earlier work.
The subject of data set [2] is AKT, JNK, and NF-κB signaling pathways and apoptosis-related proteins. Briefly: Western blot of signaling and apoptosis proteins in Caco-2 cells. The format is cell-based, human. Conditions: Caco-2, 4, 8, 16 μM, 24 h, vs control. As for the experimental part: The expression of apoptotic proteins and pathways was detected using western blot. Caco-2 cells treated with CA8 at a dose of 4, 8, or 16 μM/L for 24 h were collected and lysed with RIPA lysis buffer for 10 min. The concentration of total proteins was determined using a BCA protein quantitative kit. Total proteins were separated on an SDS-PAGE gel, transferred to PVDF membranes and incubated with 5% skim milk for 2 h. Subsequently, the PVDF membranes were incubated with primary antibodies (AKT 1:2000; Bcl-2 1:2000; Bax 1:5000; caspase-3 1:2,000; caspase-9 1:1000; P-AKT 1:1000; JNK 1:1000; P-JNK 1:1000; IKBα 1:2000; and β-actin 1:100000) at 4°C overnight. The membranes were rinsed three times with TBST and incubated with secondary antibodies (1:5000 dilution) for 2–3 h at room temperature. Finally, proteins were visualized using an ECL chemiluminescent kit (KF001, affinity). In the final step, the ImageJ software was used to analyze the results.

The nature of data set [3]: Pharmacokinetics evaluation after gavage. Particulars: SD rats. It counts as in vivo, Sprague Dawley (SD) rats. As for the experimental part: After the evaluation of the safety of CA8, 10 male Sprague Dawley (SD) rats were randomly divided into the CA8 and CU groups for the pharmacokinetic test ([Ye et al., 2020]). The rats were subjected to 1 week of adaptation and were fasted for 6 h before the experiment. CA8 (50 mg kg^−1) and CU (50 mg kg^−1) were administered via gavage. Blood samples were collected at 0.03, 0.08, 0.16, 0.25, 0.5, 1, 2, 4, 8 and 12 h and centrifuged at 5,000 rpm for 3 min to obtain the plasma. A mixture of ethyl acetate and methanol was then added to precipitate the proteins and separate the CA8 and CU from the plasma. The samples were then analyzed using HPLC.

Data set [4] relates to normal human liver cell line LO2. Briefly: MTT assay, normal liver cells LO2. It counts as cell-based. How it is done: (§1) The human cancer cell lines A549, HepG2, MCF-7, Caco-2, and HeLa and the normal human liver cell line LO2 were all obtained from Shanghai Cell Bank of China. All cells were cultured in RPMI 1640 or DMEM supplemented with 10% fetal bovine serum, 100 U/mL penicillin, and 100 μg/mL streptomycin and incubated at 37°C under 5% CO2 (HEPA incubator class100 Thermo company). The medium was replaced three times a week. Cells used in all were in the exponential growth phase.
(§2) The cell inhibition rate was evaluated using the MTT assay. Briefly, cells were seeded in a 96-well plate at a density of 3–4 × 10^3 cells per well and incubated at 37°C for 24 h. The MCACs to be tested were dissolved in dimethyl sulfoxide (DMSO, Merck, Germany) and diluted to five concentrations (3.75, 7.5, 15, 30, 60 μM/L) with RPMI 1640 medium, with each dose analyzed in quadruplicate. The concentration of DMSO was always maintained below 1‰, a concentration that is nontoxic to cells. After incubation for 24 or 48 h, MTT reagent (5 mg/mL) was added to each well and the samples were incubated for 3 h at 37°C in the dark. The absorbance of formazan crystals dissolved in 150 µL of DMSO was measured at 570 nm using a microplate reader to identify the cytotoxic effect of the analogues.
(In general: Formazan colour is commonly taken as a measure of viable cells.)

The nature of data set [5]: Solubility in water by HPLC. The format is physicochemical. Particulars: 25°C, mass of solute dissolved at saturation in 100 g of solvent. How it is done: The solubility of the synthesized compounds in water was determined using high performance liquid chromatography (HPLC). First, 1.000 g of each compound was accurately weighed, placed in 100 g of water, and stirred at 25°C for a period of time. Then, the reaction system was allowed to stand for 1 h. The supernatant was quantitatively taken, diluted with methanol to volume, and centrifuged, and the solubility was determined using HPLC.

In data set [6] the test system is Caco-2 cells. The data set can be described thus: Clonogenic assay. Conditions: 4, 8, or 16 μM/L, 6 h exposure. The format is cell-based, human. As for the experimental part:
Caco-2 cells were seeded into a 6-well plate at a density of 1 × 10^3 cells per well and incubated overnight. Then, the medium was replaced, and CA8 was added at the prescribed concentrations (4, 8, or 16 μM/L). After 6 h, the drug-containing medium was replaced with RPMI 1640 medium.
Caco-2 cells in 6-well plates were incubated for 1–2 weeks until the appearance of the colonies, followed by staining with crystal violet and incubation for 1 h at room temperature. After staining, images were captured accordingly.

The subject of data set [7] is Caco-2 cells. The data set can be described thus: Cell cycle analysis (flow cytometry). Particulars: 4, 8, 16 μM, 24 h. The format is cell-based, human. As for the experimental part:
Caco-2 cells treated with CA8 at dose of 4, 8, or 16 μM/L for 24 h, they were collected, washed with PBS, and fixed in 70% ethanol overnight. The fixed cells were washed twice with PBS, treated with RNase A (10 mg/mL) and resuspended in 50 μg/mL propidium iodide for staining. Finally, the cell cycle distribution was assessed via flow cytometry (BD Biosciences, CA).
(In general: In flow cytometry, cells or beads pass a laser one at a time.)

The test system of data set [8] is Caco-2 cells. The data set can be described thus: Apoptosis assay (Annexin V-FITC/propidium iodide flow cytometry). It counts as cell-based, human. Particulars: 4, 8, 16 μM, 24 h. As for the experimental part: The apoptotic effect of CA8 was assessed in Caco-2 cells according to the kit instructions. First, Caco-2 cells were treated with CA8 at dose of 4, 8, or 16 μM/L for 24 h. The cells were harvested and suspended in 500 μL annexin-binding buffer. Subsequently, the cells were stained with Annexin V-FITC for 15 min and then incubated with propidium iodide for 5 min at room temperature in the dark. Finally, all samples were evaluated via flow cytometry (FACS Calibur, BD, San Jose, CA, United States). The results obtained were analyzed using the FlowJo software, and the apoptotic rate was calculated.

Data set [9] concerns cervical cancer cells HeLa. The data set can be described thus: MTT antiproliferative assay, HeLa. Conditions: Homo sapiens. It counts as cell-based. As for the experimental part: as §1, §2
Data set [10] has as its system breast cancer cells MCF-7. The data set can be described thus: MTT antiproliferative assay, MCF-7. The format is cell-based. Conditions: Homo sapiens. How it is done: as §1, §2
For the next data set, the system named is liver cancer cells HepG2. Briefly: MTT antiproliferative assay, HepG2. Particulars: Homo sapiens. It counts as cell-based. As for the experimental part: as §1, §2
Data set [11] deals with colon cancer cells Caco-2. The data set can be described thus: MTT antiproliferative assay, Caco-2. The format is cell-based, human. Particulars: for IC50: Homo sapiens, read-out: IC50 Caco2. As for the experimental part: as §1, §2
The test system of a further data set is lung cancer cells A549. Briefly: MTT antiproliferative assay, A549. It counts as cell-based. Conditions: Homo sapiens. As for the experimental part: as §1, §2
In another data set the test system is Caco-2 xenograft tumors. The data set can be described thus: In vivo anticancer activity, Caco-2 xenograft. Conditions: Caco-2 xenograft; CA8 100 mg/kg, CU 100 mg/kg, tegafur 50 mg/kg, gavage every other day. As for the experimental part: Twenty 5-week-old male BALB nude mice purchased from SPF (Beijing) Biotechnology Co., Ltd. were used for the in vivo pharmacodynamic experiment of CA8. Caco-2 cells (6 × 10^6 cells in 100 μL PBS) were harvested and subcutaneously injected into the right hip of the mice. Then, they were divided into four groups when the tumor volume reached 100 mm^3 and treated with saline, CU (100 mg/kg), tegafur (50 mg/kg), or CA8 (100 mg/kg) via gavage every other day. Tumor size and body weight were measured and recorded every other day. At the end of the experiment, the mice were sacrificed and tumors were harvested and weighed. Tumor volumes were calculated by measuring length (L) and width (W) according to the following formula: V = 0.5 × L × W^2. The tumor tissue was embedded in paraffin, cut into slices, stained with HE, and observed under a light microscope.

For `COc1cc(C=C2CN(C)CC(=Cc3ccc(O)c(OC)c3)C2=O)ccc1O` [PAC], the “solubility in water, times that of CU” value in data set [1] is 27 times.
Usually Tmax stands for the time from dosing to the highest level. Usually Cmax stands for the peak of the concentration-time curve. What is called IC50 is the concentration needed to halve the response being measured. As for `COc1cc(/C=C/C(=O)CC(=O)/C=C/c2ccc(O)c(OC)c2)ccc1O` [CU, Curcumin], the “expression of P-AKT” value in data set [2] is recorded as “inhibited the expression of P-AKT”. Besides, the “expression of P-JNK and IκBα” value in data set [2] is “induced the expression of P-JNK and IκBα in a concentration-dependent manner”. In addition, the “time after dosing until cleared from / still detected in plasma” value in data set [3] (oral 50 mg kg^−1) is 2 h. Also, the “AUC(0-t)” value in data set [3] (oral (gavage) 50 mg kg^−1) is recorded as 35,697.63 μg/L*min. In [3] (oral (gavage) 50 mg kg^−1), this molecule registered a CLz of 900 mL/min/kg. Also, in [3] (oral (gavage) 50 mg kg^−1), the Tmax is reported as 30.00 min. Besides, the Vz in data set [3] (oral (gavage) 50 mg kg^−1) is 97.58 L/kg. The molecule also displayed a Cmax in data set [3] (male, Sprague Dawley, rat, plasma, oral (gavage) 50 mg kg^−1) of 380 ng/mL. Further, the MRT last in data set [3] (male, Sprague Dawley, rat, plasma, oral (gavage) 50 mg kg^−1, read-out: MRT(0-t) (converted)) was 54 min. Moreover, in data set [3] (male, Sprague Dawley, rat, plasma, oral (gavage) 50 mg kg^−1, read-out: t1/2z), the half-life was 74.8 min. Moreover, the IC50 in data set [4] (24 h) was more than 60 µM; in [4] (48 h) it was 27.6 ± 1.36 µM; in data set [9] (24 h), 58.3 ± 2.2 µM; in data set [9] (48 h) it was 17.3 ± 0.8 µM; in data set [10] (MCF7, 24 h), 40 ± 2.7 µM; in data set [10] (MCF7, 48 h), 22.3 ± 1.6 µM. Further, the IC50 with liver cancer cells HepG2 (HepG2, 24 h) is 43.4 ± 2.9 µM; in the data set with liver cancer cells HepG2 (HepG2, 48 h) it was 27.4 ± 0.3 µM; in data set [11] (Caco-2, 24 h) it was more than 60 µM; in data set [11] (Caco-2, 48 h), 33 ± 2.1 µM; in the data set with lung cancer cells A549 (A549, 24 h), 37.2 ± 2.9 µM; in the data set with lung cancer cells A549 (A549, 48 h), 34.4 ± 1.5 µM. This molecule also came in with a Solubility in data set [5] of 0.00017 mg/100g. Moreover, in the data set on Caco-2 cells [6], the “Caco-2 colony formation” value is on record as “did not have a significant inhibitory effect”. Further, in the data set on Caco-2 cells [7], the “cell cycle arrest” value is “induced S-phase arrest only to a lesser extent”. Besides, the “induction of apoptosis” value in the data set with Caco-2 cells [8] was “induced early and late apoptosis in a concentration-dependent manner”. The “SI Caco2” value in data set [11] (48 h, logarithm of ratio IC50 LO2 / IC50 cancer cells) is listed as −0.08. In addition, the “inhibitory effect on tumor growth” value in the data set with Caco-2 xenograft tumors is “CA8 > tegafur > CU”.
